# Data reported in patent US20050042236A1, “Plant extract active as an immunostimulating agent” (priority 2001, published 2005).
# Tested on: EA-specific antibodies
# Assay: Production of EA-specific antibodies in mice (Table 2)
# Assay type: in vivo
# Details: EA 50 μg, BaBb/c mice, preparation 20 μg intraperitoneal
# Method: Erythrocytes of defibrinated sheep blood were washed three times by centrifugation (1000 rpm, 10 m)in 50-fold volume of Hanks' solution, and were then re-suspended in the same solution. Mice were immunised intraperitoneally with 2 ml SE, 200 μg BSA or 50 μg EA. The latter two antigens were injected twice, with a 2-4 week interval between immunisations.
# The appropriate amount of APG was dissolved in Hank's solution or in physiological saline, 2-3 hours prior to use. APG was administered to mice in doses of between 1 and 1000 μg. When. mice were immunised with BSA, EA or SE, APG was administered simultaneously with the antigen.
# The intensity of the immune response in mice which were immunised with SE was determined according to the number of antibody-forming cells (AFC), detected in the spleen cell suspensions using the method of Jerne and Nordin (1963). AFC were detected 4-5 days following immunisation. Presence of antibodies specific to EA or BSA in blood serum of mice was detected using a solid-phase enzyme-immunoassay (EIA). Isotype of antibodies specific to BSA was determined by EIA using secondary rabbit antibodies specific to mouse IgM, IgG1, IgG2a, IgG2b or IgG3.
# The lipopeptide was Pam3Cys-Ser-Lys4 a well-known immunoadjuvant.
substance,measurement,value
Pam3Cys-Ser-Lys4 [lipopeptide],Serum Titer of EA-specific Antibodies,"20,000"
